The values below come from patent publication US5260300A, “Rapamycin carbonate esters as immuno-suppressant agents” (American Home Products Corporation, priority 1992, dated 1993).

In assay [1] the test system is Candida albicans. The conditions noted are these: particularly against Candida albicans; cited from earlier work.
For a further assay, the system named is tumor. The conditions noted are these: alone or in combination with picibanil; cited from earlier work.
For assay [2] the following is noted: in vivo; cited from earlier work.
The conditions of assay [3]: cited from earlier work.
The conditions of assay [4]: in vivo; cited from earlier work. The source holds these as a separate data set.
Assay [5] deals with cells from the thymus of normal BALB/c mice (lymphocyte proliferation). In words: LAF assay: comitogen-induced thymocyte proliferation (inhibition of lymphocyte proliferation). It is filed as cell-based. How it is done:
Immunosuppressive activity was determined in an in vitro standard pharmacological test to measure lymphocyte proliferation (LAF). […] Thus in this assay, the invention compounds have LAF activity equal or greater than rapamycin and would therefore be expected to posses the immunological properties of rapamycin and be useful in the treatment of transplantation rejection and autoimmune diseases such as lupus, rheumatoid arthritis, diabetes mellitus, multiple sclerosis, psoriasis and the like. Because of the structural similarity of the invention compounds with rapamycin and other analogs having antifungal activity against several strains of Candida albicans, the compounds of this invention would also be expected to have antifungal properties. Similarly, the compounds of this invention would be expected to have antiinflammatory activity.
The comitogen-induced thymocyte proliferation procedure (LAF) was used as an in vitro measure of the immunosuppressive effects of representative compounds. Briefly, cells from the thymus of normal BALB/c mice are cultured for 72 hours with PHA and IL-1 and pulsed with tritiated thymidine during the last six hours. Cells are cultured with and without various concentrations of rapamycin, cyclosporin A, or test compound. Cells are harvested and incorporated; radioactivity is determined. Inhibition of lymphoproliferation is assessed in percent change in counts per minute from non-drug treated controls. The results are expressed by the following ratio, or as the percent inhibition of lymphoproliferation at a concentration of 1 μM or as the IC50. [formula]

Assay [6] concerns Candida albicans. The note with it: particularly against Candida albicans; cited from earlier work. This is another data set of the same source.
A further assay relates to IgE-like antibodies. The conditions noted are these: in vivo; cited from earlier work.
Where [7] appears, read: Mus musculus, Lymphocyte, 72 h, Table I, 72 hours culture with PHA and IL-1, read-out: IC50 Ester (IC50 data for LAF assay).

As usually defined, the IC50 is the midpoint of a concentration-inhibition curve.

Where “and” joins values, the source holds several entries; their conditions need not be identical. Equal values may be shown once. Read-outs that look alike come from different tables or passages of the source.

On to `CO[C@H]1C[C@@H]2CC[C@@H](C)[C@@](O)(O2)C(=O)C(=O)N2CCCC[C@H]2C(=O)O[C@H]([C@H](C)C[C@@H]2CC[C@@H](O)[C@H](OC)C2)CC(=O)[C@H](C)/C=C(\C)[C@@H](O)[C@@H](OC)C(=O)[C@H](C)C[C@H](C)/C=C/C=C/C=C/1C` [Rapamycin], for which, in the assay on Candida albicans [1], the “antifungal activity in vitro” value is recorded as “antifungal activity, particularly against Candida albicans”. Besides, the antitumor activity result in the assay on tumor is “antitumor activity”. Moreover, the “efficacy in adjuvant arthritis model” value in assay [2] was “effective”. Also, the “inhibition of transplant rejection” value in assay [3] (in vivo) was “effective in inhibiting transplant rejection”. The “efficacy in experimental allergic encephalomyelitis model” value in assay [4] is on record as “effective”. Also, the IC50 in assay [5] (Table I, Rapamycin, comparative result beside each example ester, read-out: IC50 Rapamycin (IC50 data for LAF assay)) was 3.9 nM and 3.8 nM and 6.3 nM. The “antifungal activity in vivo” value with Candida albicans [6] is “antifungal activity, particularly against Candida albicans”. Also, in the assay with IgE-like antibodies, the “inhibition of formation of IgE-like antibodies” value was “effectively inhibited”. With `C=CCOC(=O)O[C@@H]1CC[C@@H](C[C@@H](C)[C@@H]2CC(=O)[C@H](C)/C=C(\C)[C@@H](O)[C@@H](OC)C(=O)[C@H](C)C[C@H](C)/C=C/C=C/C=C(\C)[C@@H](OC)C[C@@H]3CC[C@@H](C)[C@@](O)(O3)C(=O)C(=O)N3CCCC[C@H]3C(=O)O2)C[C@H]1OC` [Example 5, 42-O-(Prop-2-enyloxycarbonyl)rapamycin], the IC50 in assay [5] (setting [7]) is 1.6 nM. Consider `CCOC(=O)O[C@@H]1CC[C@@H](C[C@@H](C)[C@@H]2CC(=O)[C@H](C)/C=C(\C)[C@@H](O)[C@@H](OC)C(=O)[C@H](C)C[C@H](C)/C=C/C=C/C=C(\C)[C@@H](OC)C[C@@H]3CC[C@@H](C)[C@@](O)(O3)C(=O)C(=O)N3CCCC[C@H]3C(=O)O2)C[C@H]1OC` [Example 2B, 42-O-Ethoxycarbonylrapamycin], for which the IC50 in assay [5] (setting [7]) turned out to be 0.6 nM. Same read-out and setting: with `CO[C@H]1C[C@@H]2CC[C@@H](C)[C@@](O)(O2)C(=O)C(=O)N2CCCC[C@H]2C(=O)O[C@H]([C@H](C)C[C@@H]2CC[C@@H](OC(=O)Oc3ccccc3)[C@H](OC)C2)CC(=O)[C@H](C)/C=C(\C)[C@@H](O)[C@@H](OC)C(=O)[C@H](C)C[C@H](C)/C=C/C=C/C=C/1C` [Example 3, 42-O-(Phenyloxycarbonyl)rapamycin] the figure was 0.34 nM.

On to `CO[C@H]1C[C@@H]2CC[C@@H](C)[C@@](O)(O2)C(=O)C(=O)N2CCCC[C@H]2C(=O)O[C@H]([C@H](C)C[C@@H]2CC[C@@H](OC(=O)Oc3ccc([N+](=O)[O-])cc3)[C@H](OC)C2)CC(=O)[C@H](C)/C=C(\C)[C@@H](O)[C@@H](OC)C(=O)[C@H](C)C[C@H](C)/C=C/C=C/C=C/1C` [Example 4A, 42-O-(4-Nitrophenyloxycarbonyl)rapamycin], for which, in assay [5] (setting [7]), the IC50 is 1 nM. Regarding `CO[C@H]1C[C@@H]2CC[C@@H](C)[C@@](O)(O2)C(=O)C(=O)N2CCCC[C@H]2C(=O)O[C@H]([C@H](C)C[C@@H]2CC[C@@H](OC(=O)OCc3ccccc3)[C@H](OC)C2)CC(=O)[C@H](C)/C=C(\C)[C@@H](O)[C@@H](OC)C(=O)[C@H](C)C[C@H](C)/C=C/C=C/C=C/1C` [Example 6, 42-O-(Benzyloxycarbonyl)rapamycin], the IC50 in assay [5] (setting [7]) came to 0.32 nM.

Consider `CO[C@H]1C[C@@H]2CC[C@@H](C)[C@@](O)(O2)C(=O)C(=O)N2CCCC[C@H]2C(=O)O[C@H]([C@H](C)C[C@@H]2CC[C@@H](OC(=O)Oc3ccc([N+](=O)[O-])cc3)[C@H](OC)C2)CC(=O)[C@H](C)/C=C(\C)[C@@H](OC(=O)Oc2ccc([N+](=O)[O-])cc2)[C@@H](OC)C(=O)[C@H](C)C[C@H](C)/C=C/C=C/C=C/1C` [Example 4B, 31, 42-O-Bis(4-Nitrophenyloxycarbonyl)rapamycin], for which, in assay [5] (Mus musculus, Lymphocyte, 72 h, read-out: IC50 Ester (IC50 data for LAF assay)), the IC50 was found to be 23 nM. As for `COC(=O)O[C@@H]1/C(C)=C/[C@@H](C)C(=O)C[C@@H]([C@H](C)C[C@@H]2CC[C@@H](OC(=O)OC)[C@H](OC)C2)OC(=O)[C@@H]2CCCCN2C(=O)C(=O)[C@]2(O)O[C@@H](CC[C@H]2C)C[C@H](OC)/C(C)=C/C=C/C=C/[C@@H](C)C[C@@H](C)C(=O)[C@@H]1OC` [Example 1A, 31, 42-O-Bis(methoxycarbonyl)rapamycin], the IC50 in assay [5] (setting [7]) came to 0.87 nM. The same measure, in the same setting: with `CCOC(=O)O[C@@H]1/C(C)=C/[C@@H](C)C(=O)C[C@@H]([C@H](C)C[C@@H]2CC[C@@H](OC(=O)OCC)[C@H](OC)C2)OC(=O)[C@@H]2CCCCN2C(=O)C(=O)[C@]2(O)O[C@@H](CC[C@H]2C)C[C@H](OC)/C(C)=C/C=C/C=C/[C@@H](C)C[C@@H](C)C(=O)[C@@H]1OC` [Example 2A, 31, 42-O-Bis(ethoxycarbonyl)rapamycin] the figure was 2 nM.

In the case of `C=CC[C@@H]1/C=C(\C)C[C@H](C)C[C@H](OC)[C@H]2O[C@@](O)(C(=O)C(=O)N3CCCC[C@H]3C(=O)O[C@H](/C(C)=C/[C@@H]3CC[C@@H](O)[C@H](OC)C3)[C@H](C)[C@@H](O)CC1=O)[C@H](C)C[C@@H]2OC` [FK-506], the “effectiveness as immunosuppressive agent” value in assay [3] (useful in preventing transplant rejection) is on record as “effective as immunosuppressive agents”. Take `COC(=O)O[C@@H]1CC[C@@H](C[C@@H](C)[C@@H]2CC(=O)[C@H](C)/C=C(\C)[C@@H](O)[C@@H](OC)C(=O)[C@H](C)C[C@H](C)/C=C/C=C/C=C(\C)[C@@H](OC)C[C@@H]3CC[C@@H](C)[C@@](O)(O3)C(=O)C(=O)N3CCCC[C@H]3C(=O)O2)C[C@H]1OC` [Example 1B, 42-O-Methoxycarbonylrapamycin]: the concentration for half-maximal inhibition (IC50) in assay [5] (setting [7]) came to 2.5 nM.
